From patent publication US6528295B2, “Protein phosphatase methylesterase” (priority 1998, dated 2003)
Entries after “also recorded” stand apart in the source; their conditions may differ. *1 amine or outer side, *2 acyl side, *3 side chain or, on linkers, in order; H or OH if unused. Where a SMILES comes first, the peptide text is derived from it. Bridges are numbered along the chain shown (N, C = ends). [ ]: non-standard residue; d: D form. Adda = CO[C@@H](Cc1ccccc1)[C@@H](C)/C=C(C)/C=C/[C@H](N[*:1])[C@H](C)C(=O)[*:2]; dAsp(3S-Me) = C[C@H](C(=O)[*:3])[C@@H](N[*:1])C(=O)[*:2]; d(γGlu) = O=C(O)[C@@H](CCC(=O)[*:2])N[*:1]; NMeDha = C=C(NC)C(=O)O

Key:
human PME-1 [1] = molecular target: human PME-1 (Homo sapiens, UniProt Q9Y570); format: biochemical
PP2A = PP2A (Homo sapiens, UniProt P67775); format: biochemical
H59Q/PME-1 complex = molecular target: T1, H59Q/PME-1 complex (Homo sapiens, UniProt P67775, H59Q); format: binding, mouse
T1 construct: expressed in transfected cells; host or cells: NIH3T3 (A3); MT-transformed NIH3T3 (A8); PME-1 is endogenous

PP2A methyltransferase = details: cited from earlier work
[2] = test system: phosphorylase a and cdc2-phosphorylated histone H1; assay: Phosphatase activity in anti-HA tag immunoprecipitates of wt and mutant C subunits; format: biochemical; details: normalized to wt, four independent experiments
human PME-1 [3] = format: biochemical
[4] = test system: 46 kDa PP2A methylesterase; details: cited from earlier work
PME-1 = molecular target: T2, PME-1 (Mus musculus, UniProt Q8BVQ5); assay: Immunoprecipitation assay of PME-1 binding to H59Q/301Stop versus H59Q; details: all seven experiments
T2 construct: endogenous in cells; host or cells: MT-transformed NIH3T3 cells (C subunit mutants stably transfected)
T2 sequence (Q8BVQ5 1-386): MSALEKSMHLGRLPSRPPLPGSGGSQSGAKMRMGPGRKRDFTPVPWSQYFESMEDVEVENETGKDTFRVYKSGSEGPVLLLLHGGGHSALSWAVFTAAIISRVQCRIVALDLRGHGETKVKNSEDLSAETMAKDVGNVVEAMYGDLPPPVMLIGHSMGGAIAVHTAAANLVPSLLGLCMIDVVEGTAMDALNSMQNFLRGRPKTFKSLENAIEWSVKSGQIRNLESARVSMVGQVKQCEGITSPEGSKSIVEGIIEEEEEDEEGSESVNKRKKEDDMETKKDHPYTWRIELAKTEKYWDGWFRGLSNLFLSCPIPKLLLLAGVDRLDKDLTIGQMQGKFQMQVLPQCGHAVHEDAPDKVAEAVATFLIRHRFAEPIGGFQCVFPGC

PP2A, sequence (P67775 whole entry): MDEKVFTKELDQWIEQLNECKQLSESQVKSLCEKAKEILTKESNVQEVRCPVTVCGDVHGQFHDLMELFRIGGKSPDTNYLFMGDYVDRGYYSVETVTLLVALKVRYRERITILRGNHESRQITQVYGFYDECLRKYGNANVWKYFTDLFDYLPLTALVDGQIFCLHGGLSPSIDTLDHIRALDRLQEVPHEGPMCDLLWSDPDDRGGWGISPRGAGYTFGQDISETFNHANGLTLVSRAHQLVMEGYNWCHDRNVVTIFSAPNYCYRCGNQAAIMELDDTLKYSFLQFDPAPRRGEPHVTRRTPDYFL
T1 sequence (P67775 whole entry H59Q): as the sequence (P67775 whole entry) above, with H59Q counted along it
T1 sequence (Q76MZ3 whole entry partner): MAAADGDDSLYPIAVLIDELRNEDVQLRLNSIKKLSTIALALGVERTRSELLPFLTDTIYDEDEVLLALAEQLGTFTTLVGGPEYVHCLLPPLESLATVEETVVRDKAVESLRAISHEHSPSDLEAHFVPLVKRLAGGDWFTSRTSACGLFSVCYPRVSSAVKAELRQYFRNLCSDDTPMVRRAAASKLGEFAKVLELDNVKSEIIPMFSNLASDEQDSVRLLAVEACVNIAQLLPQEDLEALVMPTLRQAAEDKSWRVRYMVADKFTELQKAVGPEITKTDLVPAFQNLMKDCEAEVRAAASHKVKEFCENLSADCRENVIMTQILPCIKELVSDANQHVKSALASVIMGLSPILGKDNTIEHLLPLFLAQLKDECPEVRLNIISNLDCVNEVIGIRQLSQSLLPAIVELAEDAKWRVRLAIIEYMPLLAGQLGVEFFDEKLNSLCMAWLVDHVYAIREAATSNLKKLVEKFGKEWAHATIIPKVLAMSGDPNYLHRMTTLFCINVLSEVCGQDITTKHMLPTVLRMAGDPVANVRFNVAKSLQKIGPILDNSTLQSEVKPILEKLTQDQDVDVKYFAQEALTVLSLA
human PME-1 (Homo sapiens, UniProt Q9Y570), sequence (Q9Y570 2-386): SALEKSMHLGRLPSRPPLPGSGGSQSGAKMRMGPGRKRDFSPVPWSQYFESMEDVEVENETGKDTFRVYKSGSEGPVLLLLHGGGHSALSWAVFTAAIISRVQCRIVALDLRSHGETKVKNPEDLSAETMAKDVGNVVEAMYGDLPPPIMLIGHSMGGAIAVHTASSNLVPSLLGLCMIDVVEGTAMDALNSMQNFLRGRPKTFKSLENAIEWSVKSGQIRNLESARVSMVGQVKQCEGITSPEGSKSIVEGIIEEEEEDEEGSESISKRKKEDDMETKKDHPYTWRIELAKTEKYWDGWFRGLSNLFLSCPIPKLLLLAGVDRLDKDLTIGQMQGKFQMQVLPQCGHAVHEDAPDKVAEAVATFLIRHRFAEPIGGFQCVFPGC

O=S(=O)(F)Cc1ccccc1 [PMSF, phenylmethylsulfonyl fluoride]
methylesterase activity of bacterially expressed PME-1 (human PME-1 [1]): not

sodium vanadate
inhibition of PP2A (PP2A): 25±18% | amount of PME-1 bound to (complexed with) H59Q C subunit (H59Q/PME-1 complex): not

C=C1C(=O)N[C@H](C)C(=O)N[C@@H](CC(C)C)C(=O)N[C@@H](C(=O)O)[C@H](C)C(=O)N[C@@H](CCCNC(=N)N)C(=O)N[C@@H](/C=C/C(C)=C/[C@H](C)[C@H](Cc2ccccc2)OC)[C@H](C)C(=O)N[C@@H](C(=O)O)CCC(=O)N1C [microcystin-LR] (R[Adda][d(γGlu)][NMeDha][dA]L[dAsp(3S-Me)]-OH; lactam N-7)
inhibition of the PP2A methyltransferase (PP2A methyltransferase): inhibited

wt: HA-tagged wild-type PP2A C subunit
C subunit-associated phosphatase activity, cdc2-phosphorylated Histone H1 (Mean ± s.d.) ([2]; substrate cdc2-phosphorylated histone H1): 100 % wt | C subunit-associated phosphatase activity, phosphorylase a (Means ± s.d.) ([2]; substrate phosphorylase a): 100 % wt

[F-].[Na+] [sodium fluoride]
inhibition of PP2A (PP2A): 91±10% | amount of PME-1 bound to (complexed with) H59Q C subunit (H59Q/PME-1 complex): reduce; also recorded: decreased

C=C1[C@@H](O)[C@@H]2O[C@]3(CC[C@H](/C=C/[C@@H](C)[C@@H]4CC(C)=C[C@@]5(O[C@H](C[C@@](C)(O)C(=O)O)CC[C@H]5O)O4)O3)CC[C@H]2O[C@@H]1[C@@H](O)C[C@H](C)[C@H]1O[C@@]2(CCCCO2)CC[C@H]1C [okadaic acid]
methylesterase activity of bacterially expressed PME-1 (human PME-1 [3]): inhibited | inhibition of PP2A (PP2A): 97±4% | amount of PME-1 bound to (complexed with) H59Q C subunit (H59Q/PME-1 complex): reduce; also recorded: decreased | inhibition of the 46 kDa PP2A methylesterase [4]: inhibited | inhibition of the PP2A methyltransferase (PP2A methyltransferase): inhibited

H59Q/301Stop: double mutant combining H59Q with deletion of the nine C subunit carboxy-terminal amino acids 301-309
overall mean reduction of PME-1 bound relative to H59Q (PME-1): 28%
